The test system of test [1] is BT-474. The test can be described thus: Growth inhibition of human BT474 cells overexpressing HER2 after 5 days. In kind it is functional. Conditions: BT-474, 120 h.
The target of test [2] is T1, Receptor tyrosine-protein kinase erbB-2 (Homo sapiens, UniProt P04626). The test can be described thus: Inhibition of human N-terminal DYKDDDD-tagged HER2 cytoplasmic domain (676 to 1255) expressed in baculovirus expression system incubated for 5 mins prior to [gamma-32P]ATP addition measured after 10 mins by scintillation counting analysis.
In test [3] the target is Epidermal growth factor receptor (Homo sapiens, UniProt P00533). The test can be described thus: Inhibition of human N-terminal DYKDDDD-tagged EGFR cytoplasmic domain (669 to 1210) expressed in baculovirus expression system incubated for 5 mins prior to [gamma-32P]ATP addition measured after 10 mins by scintillation counting analysis.
For test [4], the target named is Mitogen-activated protein kinase 14 (Homo sapiens, UniProt Q16539). The test can be described thus: Inhibition of N-terminal FLAG-tagged p38alpha (unknown origin) expressed in baculovirus expression system incubated for 5 mins prior to [gamma-33P]ATP addition measured after 60 mins by scintillation counting analysis.
The target of test [5] is Dual specificity mitogen-activated protein kinase kinase 5 (Homo sapiens, UniProt Q13163). The test can be described thus: Inhibition of N-terminal FLAG-tagged MEK5 (unknown origin) expressed in baculovirus expression system incubated for 5 mins prior to [gamma-33P]ATP addition measured after 30 mins by scintillation counting analysis.
Test [6] addresses Insulin-like growth factor 1 receptor (Homo sapiens, UniProt P08069). The test can be described thus: Inhibition of IGF1R (unknown origin) incubated for 5 mins prior to ATP addition measured after 20 mins by Alphascreen assay. On the technique in general: Bead proximity is the source of the signal in Alpha formats.
For test [7], the target named is T1, Receptor tyrosine-protein kinase erbB-2. Nature of the test: Pseudo-irreversible inhibition of human N-terminal DYKDDDD-tagged HER2 cytoplasmic domain (676 to 1255) expressed in baculovirus expression system at 10 times IC50 preincubated for 15 mins followed by 100 fold dilution measured after 16 hrs by Alphascreen assay.
A short description of test [8]: Inhibition of PKA (unknown origin) expressed in Escherichia coli expression system incubated for 5 mins prior to [gamma-33P]ATP addition measured after 10 mins by scintillation counting analysis. More on the design: species or system Homo sapiens.
For test [9], the target named is Dual specificity mitogen-activated protein kinase kinase 1 (Homo sapiens, UniProt Q02750). The test can be described thus: Inhibition of N-terminal GST-fused MEK1 (unknown origin) incubated for 5 mins prior to [gamma-33P]ATP addition measured after 20 mins by scintillation counting analysis.
The target in test [10] is Serine/threonine-protein kinase PLK1 (Homo sapiens, UniProt P53350). The test can be described thus: Inhibition of N-terminal FLAG-tagged PLK (unknown origin) expressed in baculovirus expression system incubated for 5 mins prior to [gamma-33P]ATP addition measured after 40 mins by scintillation counting analysis.
In test [11] the target is Tyrosine-protein kinase CSK (Homo sapiens, UniProt P41240). Nature of the test: Inhibition of CSK (unknown origin) incubated for 5 mins prior to ATP addition measured after 10 mins by Alphascreen assay.
The target in test [12] is Serine/threonine-protein kinase B-raf (Homo sapiens, UniProt P15056). Nature of the test: Inhibition of wild type N-terminal FLAG-tagged B-raf (unknown origin) expressed in baculovirus expression system incubated for 5 mins prior to [gamma-33P]ATP addition measured after 20 mins by scintillation counting analysis.
Test [13] has as its target Cytoplasmic tyrosine-protein kinase BMX (Homo sapiens, UniProt P51813). Nature of the test: Inhibition of N-terminal FLAG-tagged full length BMX (unknown origin) expressed in baculovirus expression system incubated for 5 mins prior to ATP addition measured after 10 mins by Alphascreen assay.
The target in test [14] is Inhibitor of nuclear factor kappa-B kinase subunit beta (Homo sapiens, UniProt O14920). Nature of the test: Inhibition of C-terminal FLAG-tagged IKKbeta (unknown origin) expressed in baculovirus expression system incubated for 5 mins prior to [gamma-33P]ATP addition measured after 5 mins by scintillation counting analysis.
In test [15] the target is Tyrosine-protein kinase Lck (Homo sapiens, UniProt P06239). The test can be described thus: Inhibition of LCK (unknown origin) incubated for 5 mins prior to ATP addition measured after 30 mins by Alphascreen assay.
Test [16] addresses T2, Tyrosine-protein kinase Lyn (Homo sapiens, UniProt P07948). Nature of the test: Inhibition of LYNA (unknown origin) incubated for 5 mins prior to ATP addition measured after 10 mins by Alphascreen assay.
The target in test [17] is Insulin receptor (Homo sapiens, UniProt P06213). The test can be described thus: Inhibition of InsR (unknown origin) incubated for 5 mins prior to ATP addition measured after 60 mins by Alphascreen assay.
Test [18] deals with Fibroblast growth factor receptor 1 (Homo sapiens, UniProt P11362). The test can be described thus: Inhibition of FGFR1 (unknown origin) incubated for 5 mins prior to ATP addition measured after 10 mins by Alphascreen assay.
The target of test [19] is Fibroblast growth factor receptor 3 (Homo sapiens, UniProt P22607). Nature of the test: Inhibition of FGFR3 (unknown origin) incubated for 5 mins prior to ATP addition measured after 10 mins by Alphascreen assay.
Test [20] addresses Platelet-derived growth factor receptor beta (Homo sapiens, UniProt P09619). Nature of the test: Inhibition of PDGFRbeta (unknown origin) incubated for 5 mins prior to ATP addition measured after 60 mins by Alphascreen assay.
In test [21] the target is Hepatocyte growth factor receptor (Homo sapiens, UniProt P08581). Nature of the test: Inhibition of c-MET (unknown origin) incubated for 5 mins prior to ATP addition measured after 10 mins by Alphascreen assay.
For test [22], the target named is Glycogen synthase kinase-3 beta (Homo sapiens, UniProt P49841). The test can be described thus: Inhibition of N-terminal FLAG-tagged GSK3beta (unknown origin) expressed in baculovirus expression system incubated for 5 mins prior to [gamma-33P]ATP addition measured after 30 mins by scintillation counting analysis.
Test [23] addresses Mitogen-activated protein kinase 8 (Homo sapiens, UniProt P45983). The test can be described thus: Inhibition of N-terminal FLAG-tagged JNK1 (unknown origin) expressed in baculovirus expression system incubated for 5 mins prior to [gamma-33P]ATP addition measured after 60 mins by scintillation counting analysis.
Test [24] has as its target Platelet-derived growth factor receptor alpha (Homo sapiens, UniProt P16234). Nature of the test: Inhibition of PDGFRalpha (unknown origin) incubated for 5 mins prior to ATP addition measured after 30 mins by Alphascreen assay.
Test [25] concerns the target Angiopoietin-1 receptor (Homo sapiens, UniProt Q02763). The test can be described thus: Inhibition of TIE2 (unknown origin) incubated for 5 mins prior to ATP addition measured after 10 mins by Alphascreen assay.
The target in test [26] is T2, Tyrosine-protein kinase Lyn. The test can be described thus: Inhibition of LYNB (unknown origin) incubated for 5 mins prior to ATP addition measured after 10 mins by Alphascreen assay.
Test [27] addresses Tyrosine-protein kinase ZAP-70 (Homo sapiens, UniProt P43403). The test can be described thus: Inhibition of ZAP70 (unknown origin) incubated for 5 mins prior to ATP addition measured after 10 mins by Alphascreen assay.
Test [28] concerns the target Vascular endothelial growth factor receptor 2 (Homo sapiens, UniProt P35968). Nature of the test: Inhibition of N-terminal FLAG-tagged VEGFR2 cytoplasmic domain (unknown origin) incubated for 5 mins prior to ATP addition measured after 10 mins by Alphascreen assay.
For test [29], the target named is Vascular endothelial growth factor receptor 1 (Homo sapiens, UniProt P17948). The test can be described thus: Inhibition of VEGFR1 (unknown origin) incubated for 5 mins prior to ATP addition measured after 5 mins by Alphascreen assay.
For test [30], the target named is Receptor tyrosine-protein kinase erbB-4 (Homo sapiens, UniProt Q15303). The test can be described thus: Inhibition of HER4 cytoplasmic domain (unknown origin) expressed in baculovirus expression system incubated for 5 mins prior to [gamma-32P]ATP addition measured after 10 mins by scintillation counting analysis.
For test [31], the target named is Mitogen-activated protein kinase 3 (Homo sapiens, UniProt P27361). The test can be described thus: Inhibition of N-terminal FLAG-tagged ERK1 (unknown origin) expressed in baculovirus expression system incubated for 5 mins prior to [gamma-33P]ATP addition measured after 60 mins by scintillation counting analysis.
The target of test [32] is Mitogen-activated protein kinase kinase kinase 5 (Homo sapiens, UniProt Q99683). Nature of the test: Inhibition of N-terminal FLAG-tagged ASK1 (unknown origin) expressed in baculovirus expression system incubated for 5 mins prior to [gamma-33P]ATP addition measured after 60 mins by scintillation counting analysis.
Test [33] concerns the target Aurora kinase B (Homo sapiens, UniProt Q96GD4). Nature of the test: Inhibition of N-terminal His6x-tagged aurora-B (unknown origin) expressed in baculovirus expression system incubated for 5 mins prior to [gamma-33P]ATP addition measured after 60 mins by scintillation counting analysis.
The target of test [34] is Protein kinase C theta type (Homo sapiens, UniProt Q04759). The test can be described thus: Inhibition of N-terminal FLAG-tagged PKCtheta (unknown origin) expressed in baculovirus expression system incubated for 5 mins prior to [gamma-33P]ATP addition measured after 60 mins by scintillation counting analysis.
For test [35], the target named is Dual specificity protein kinase TTK (Homo sapiens, UniProt P33981). Nature of the test: Inhibition of N-terminal FLAG-tagged TTK (unknown origin) expressed in baculovirus expression system incubated for 5 mins prior to [gamma-33P]ATP addition measured after 10 mins by scintillation counting analysis.
Test [36] deals with Mitogen-activated protein kinase kinase kinase 1 (Homo sapiens, UniProt Q13233). The test can be described thus: Inhibition of C-terminal FLAG-tagged MEKK (unknown origin) expressed in baculovirus expression system incubated for 5 mins prior to [gamma-33P]ATP addition measured after 60 mins by scintillation counting analysis.
Test [37] addresses Mast/stem cell growth factor receptor Kit (Homo sapiens, UniProt P10721). The test can be described thus: Inhibition of c-kit (unknown origin) incubated for 5 mins prior to ATP addition measured after 20 mins by Alphascreen assay.

The source made the active and inactive calls. The rule behind the calls is not given here.

Epidermal growth factor receptor, sequence (P00533 whole entry, the tested form may be a part): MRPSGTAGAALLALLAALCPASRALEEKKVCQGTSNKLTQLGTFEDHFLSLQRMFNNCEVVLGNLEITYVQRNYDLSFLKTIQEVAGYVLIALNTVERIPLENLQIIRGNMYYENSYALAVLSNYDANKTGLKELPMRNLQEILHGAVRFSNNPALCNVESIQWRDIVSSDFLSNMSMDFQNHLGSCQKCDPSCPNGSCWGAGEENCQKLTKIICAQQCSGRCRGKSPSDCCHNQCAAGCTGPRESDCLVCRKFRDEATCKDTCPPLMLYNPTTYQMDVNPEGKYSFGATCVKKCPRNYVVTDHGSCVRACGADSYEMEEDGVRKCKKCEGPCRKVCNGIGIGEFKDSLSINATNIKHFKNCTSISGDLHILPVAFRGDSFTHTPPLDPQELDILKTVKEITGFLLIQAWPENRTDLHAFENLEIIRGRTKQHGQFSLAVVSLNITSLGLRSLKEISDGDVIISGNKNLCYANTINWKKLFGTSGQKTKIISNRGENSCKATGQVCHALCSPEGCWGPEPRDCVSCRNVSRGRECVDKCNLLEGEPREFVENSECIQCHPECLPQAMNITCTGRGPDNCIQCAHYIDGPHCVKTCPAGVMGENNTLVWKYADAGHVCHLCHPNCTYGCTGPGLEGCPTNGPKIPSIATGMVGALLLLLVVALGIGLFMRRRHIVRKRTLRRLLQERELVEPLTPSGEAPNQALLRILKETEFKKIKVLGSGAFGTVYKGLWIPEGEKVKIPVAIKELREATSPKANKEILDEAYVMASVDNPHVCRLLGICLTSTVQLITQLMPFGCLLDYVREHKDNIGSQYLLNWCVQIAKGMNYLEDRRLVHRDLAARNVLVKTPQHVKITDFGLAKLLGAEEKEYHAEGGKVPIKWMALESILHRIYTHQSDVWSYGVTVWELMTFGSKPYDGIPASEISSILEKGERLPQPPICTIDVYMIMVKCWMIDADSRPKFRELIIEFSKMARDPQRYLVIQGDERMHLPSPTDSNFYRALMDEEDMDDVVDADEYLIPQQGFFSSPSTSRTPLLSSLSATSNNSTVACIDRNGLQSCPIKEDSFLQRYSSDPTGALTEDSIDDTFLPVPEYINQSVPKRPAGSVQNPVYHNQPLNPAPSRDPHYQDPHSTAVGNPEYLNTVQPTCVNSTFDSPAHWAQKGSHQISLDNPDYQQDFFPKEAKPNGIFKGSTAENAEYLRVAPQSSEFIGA
T1 sequence (P04626 whole entry, the tested form may be a part): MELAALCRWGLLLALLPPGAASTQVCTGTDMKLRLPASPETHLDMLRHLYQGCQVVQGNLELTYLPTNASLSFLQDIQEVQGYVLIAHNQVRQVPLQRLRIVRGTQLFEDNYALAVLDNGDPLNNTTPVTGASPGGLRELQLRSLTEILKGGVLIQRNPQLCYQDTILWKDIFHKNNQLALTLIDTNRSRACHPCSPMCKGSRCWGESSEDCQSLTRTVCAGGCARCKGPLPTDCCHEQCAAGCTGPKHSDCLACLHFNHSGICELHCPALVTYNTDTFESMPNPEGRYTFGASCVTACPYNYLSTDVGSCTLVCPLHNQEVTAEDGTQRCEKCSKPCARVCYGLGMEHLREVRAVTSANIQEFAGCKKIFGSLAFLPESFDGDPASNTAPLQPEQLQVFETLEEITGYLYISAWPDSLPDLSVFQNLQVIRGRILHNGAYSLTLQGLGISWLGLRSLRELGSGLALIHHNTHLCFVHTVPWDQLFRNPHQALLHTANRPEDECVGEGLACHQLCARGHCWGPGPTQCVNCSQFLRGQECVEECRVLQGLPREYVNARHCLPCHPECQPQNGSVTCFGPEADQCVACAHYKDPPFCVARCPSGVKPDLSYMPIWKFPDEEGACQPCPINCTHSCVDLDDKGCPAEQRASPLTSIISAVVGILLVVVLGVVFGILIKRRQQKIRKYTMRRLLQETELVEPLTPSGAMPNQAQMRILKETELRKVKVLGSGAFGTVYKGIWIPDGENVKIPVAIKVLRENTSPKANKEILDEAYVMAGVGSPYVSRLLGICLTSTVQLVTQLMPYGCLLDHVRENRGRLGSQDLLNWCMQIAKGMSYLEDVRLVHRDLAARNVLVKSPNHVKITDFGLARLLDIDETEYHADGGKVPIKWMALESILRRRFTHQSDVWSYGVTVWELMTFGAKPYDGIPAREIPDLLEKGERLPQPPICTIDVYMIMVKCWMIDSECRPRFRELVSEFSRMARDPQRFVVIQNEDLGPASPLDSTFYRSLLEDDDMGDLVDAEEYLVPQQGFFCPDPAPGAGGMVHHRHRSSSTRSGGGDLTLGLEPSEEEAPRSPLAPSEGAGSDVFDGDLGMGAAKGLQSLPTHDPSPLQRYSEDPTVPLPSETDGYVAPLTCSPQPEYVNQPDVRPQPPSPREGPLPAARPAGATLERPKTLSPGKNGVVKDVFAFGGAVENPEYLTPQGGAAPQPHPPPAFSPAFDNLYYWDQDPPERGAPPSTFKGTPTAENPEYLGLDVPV
T2 sequence (P07948 whole entry): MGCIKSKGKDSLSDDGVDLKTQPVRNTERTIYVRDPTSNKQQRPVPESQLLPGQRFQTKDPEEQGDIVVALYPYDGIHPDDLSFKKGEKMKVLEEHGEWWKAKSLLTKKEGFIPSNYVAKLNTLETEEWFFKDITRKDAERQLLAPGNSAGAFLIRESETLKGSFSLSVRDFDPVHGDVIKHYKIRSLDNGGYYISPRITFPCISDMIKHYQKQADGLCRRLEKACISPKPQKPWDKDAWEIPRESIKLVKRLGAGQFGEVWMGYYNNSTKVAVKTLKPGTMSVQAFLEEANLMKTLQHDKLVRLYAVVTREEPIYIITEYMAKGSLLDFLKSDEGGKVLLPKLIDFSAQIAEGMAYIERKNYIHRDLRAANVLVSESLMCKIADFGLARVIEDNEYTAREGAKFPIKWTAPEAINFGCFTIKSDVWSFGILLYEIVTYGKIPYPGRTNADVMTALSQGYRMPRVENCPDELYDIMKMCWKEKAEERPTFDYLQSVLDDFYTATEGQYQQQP
Mitogen-activated protein kinase kinase kinase 5, sequence (Q99683 whole entry): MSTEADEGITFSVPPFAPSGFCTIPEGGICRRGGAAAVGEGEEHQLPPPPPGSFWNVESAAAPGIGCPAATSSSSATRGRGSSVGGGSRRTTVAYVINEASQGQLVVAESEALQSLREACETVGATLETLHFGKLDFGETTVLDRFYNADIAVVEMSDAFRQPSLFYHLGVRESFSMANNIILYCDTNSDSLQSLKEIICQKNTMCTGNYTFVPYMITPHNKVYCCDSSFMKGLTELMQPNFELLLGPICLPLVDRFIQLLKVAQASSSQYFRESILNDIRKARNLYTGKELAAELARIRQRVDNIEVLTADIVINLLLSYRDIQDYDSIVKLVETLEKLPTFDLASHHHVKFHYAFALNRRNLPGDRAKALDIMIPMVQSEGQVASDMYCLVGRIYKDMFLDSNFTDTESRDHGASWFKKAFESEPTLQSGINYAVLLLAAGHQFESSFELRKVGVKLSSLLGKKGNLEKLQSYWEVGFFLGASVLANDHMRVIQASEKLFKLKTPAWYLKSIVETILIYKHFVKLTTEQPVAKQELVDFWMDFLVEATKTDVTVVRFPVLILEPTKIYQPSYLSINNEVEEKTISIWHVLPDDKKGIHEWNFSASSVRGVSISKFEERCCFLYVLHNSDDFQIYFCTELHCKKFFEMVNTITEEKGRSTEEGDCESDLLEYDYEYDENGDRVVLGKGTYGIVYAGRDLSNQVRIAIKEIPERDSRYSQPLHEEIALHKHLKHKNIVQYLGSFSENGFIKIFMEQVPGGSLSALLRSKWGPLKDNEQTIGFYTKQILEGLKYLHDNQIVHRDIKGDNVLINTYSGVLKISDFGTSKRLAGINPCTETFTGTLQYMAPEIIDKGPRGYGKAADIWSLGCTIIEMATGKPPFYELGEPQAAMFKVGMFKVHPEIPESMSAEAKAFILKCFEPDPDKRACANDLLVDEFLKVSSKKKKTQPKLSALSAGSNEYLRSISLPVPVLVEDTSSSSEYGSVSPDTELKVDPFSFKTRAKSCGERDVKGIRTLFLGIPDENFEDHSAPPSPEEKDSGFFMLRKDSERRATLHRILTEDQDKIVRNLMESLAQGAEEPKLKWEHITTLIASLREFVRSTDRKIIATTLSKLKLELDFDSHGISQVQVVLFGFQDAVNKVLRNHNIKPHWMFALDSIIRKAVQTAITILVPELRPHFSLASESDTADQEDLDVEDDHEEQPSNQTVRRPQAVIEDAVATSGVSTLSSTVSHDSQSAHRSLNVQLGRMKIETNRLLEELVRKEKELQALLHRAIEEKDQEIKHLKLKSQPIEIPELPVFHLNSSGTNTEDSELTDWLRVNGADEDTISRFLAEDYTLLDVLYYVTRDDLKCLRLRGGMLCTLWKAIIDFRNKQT
Tyrosine-protein kinase ZAP-70, sequence (P43403 whole entry, the tested form may be a part): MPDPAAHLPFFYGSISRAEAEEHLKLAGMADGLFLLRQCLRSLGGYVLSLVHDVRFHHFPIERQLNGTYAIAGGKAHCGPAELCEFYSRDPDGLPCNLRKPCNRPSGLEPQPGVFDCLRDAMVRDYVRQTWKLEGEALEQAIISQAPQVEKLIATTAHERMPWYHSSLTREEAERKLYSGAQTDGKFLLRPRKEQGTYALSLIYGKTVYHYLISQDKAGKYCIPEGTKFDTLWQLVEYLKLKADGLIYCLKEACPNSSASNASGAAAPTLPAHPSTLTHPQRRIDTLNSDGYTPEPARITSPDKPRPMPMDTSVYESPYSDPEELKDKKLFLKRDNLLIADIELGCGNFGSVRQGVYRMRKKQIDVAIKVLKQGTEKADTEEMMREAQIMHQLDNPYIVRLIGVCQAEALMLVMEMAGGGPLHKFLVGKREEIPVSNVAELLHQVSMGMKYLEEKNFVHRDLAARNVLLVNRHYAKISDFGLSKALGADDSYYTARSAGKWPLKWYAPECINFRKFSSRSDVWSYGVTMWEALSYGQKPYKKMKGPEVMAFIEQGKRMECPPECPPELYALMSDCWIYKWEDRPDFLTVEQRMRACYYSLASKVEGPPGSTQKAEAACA

As for `CS(=O)(=O)CCNC(=O)C1=Cc2c(ncnc2Nc2ccc(Oc3cccc4sccc34)c(Cl)c2)NCC1`, in [1], halving of growth (GI50) required 25 nM. For the same compound, the values for the IC50 in test [2] and in [3] were 30 nM and 47 nM, respectively.
For `COC(=O)C1=Cc2c(ncnc2Nc2ccc(Oc3cccc4sccc34)c(Cl)c2)NCC1` the same measures were 190 nM, 18 nM and 44 nM.
Consider `O=C(NCCO)C1=Cc2c(ncnc2Nc2ccc(Oc3cccc4sccc34)c(Cl)c2)NCC1`, for which the IC50 (commonly the midpoint of a concentration-inhibition curve) in test [4] was 1700 nM; in test [5] it was 870 nM; in test [6], > 10000 nM; in test [8], > 10000 nM; in test [9] it was > 10000 nM; in test [10] it was > 10000 nM. Besides, the IC50 was > 10000 nM in test [11]; 230 nM in test [12]; > 10000 nM in test [13]; > 10000 nM in [14]; 3200 nM in [15]; 9800 nM in test [16]. Besides, the IC50 in test [17] was > 10000 nM; in test [18], > 10000 nM; in test [19] it was > 10000 nM; in test [20] it was > 10000 nM; in test [21], 5600 nM; in [2], 24 nM. The IC50 was > 10000 nM in [22]; > 10000 nM in [23]; > 10000 nM in test [24]; > 10000 nM in [25]; 3000 nM in test [26]; > 10000 nM in [27]. Besides, the IC50 in test [28] is > 10000 nM; in test [29], > 10000 nM; in test [30], 240 nM; in test [31], > 10000 nM; in [32], > 10000 nM; in test [33], > 10000 nM. For the same compound, the IC50 in test [34], in [35], in test [36] and in test [37] was > 10000 nM throughout. Besides, in [7], the inhibition result was “Active”. Also, the GI50 (usually the concentration giving 50% growth inhibition) in test [1] was 18 nM.
In test [1], `CC(C)(O)CC(=O)NCCn1ccc2ncnc(Nc3ccc(Oc4cccc(C(F)(F)F)c4)c(Cl)c3)c21` [TAK-285] came in with a GI50 of 17 nM.
For `CS(=O)(=O)CCNC(=O)C1=Cc2c(ncnc2Nc2ccc(Oc3cccc(C(F)(F)F)c3)c(Cl)c2)NCC1`, the GI50 in test [1] worked out at 620 nM. Also, the results for the IC50 in test [2] and in [3] were 65 nM and 75 nM, respectively.
For `COC(=O)C1=Cc2c(ncnc2Nc2ccc(Oc3cccc(C(F)(F)F)c3)c(Cl)c2)NCC1` the same measures were 2000 nM, 100 nM and 110 nM.
For `O=C(NCCO)C1=Cc2c(ncnc2Nc2ccc(Oc3cccc(C(F)(F)F)c3)c(Cl)c2)NCC1` the same measures were 630 nM, 29 nM and 38 nM.

The values are drawn from ChEMBL document CHEMBL2346616, “Design and synthesis of novel pyrimido[4,5-b]azepine derivatives as HER2/EGFR dual inhibitors” (Bioorg Med Chem, 2013).
